Experimental data: patent US12115178B2, “Acylated active agents and methods of their use for the treatment of autoimmune disorders” (Flagship Pioneering Innovations V, Inc., priority 2018, dated 2024)

Columns and labels:
Format in all cases: in vitro ADME
[1] = Assay 2. Stability in Simulated Intestinal Fluid (SIF); conditions: SIF pH 6.7 with pancreatin, 1 μM, 37° C.
Summary of the method: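 Degradation rates came from LC/MS of acetonitrile-quenched samples drawn at intervals, starting at T0. The medium was freshly made pH 6.7 FaSSIF containing pancreatin, and test compound was present at 1 µM while being shaken at 37 °C.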

[2] = Assay 3. In vitro Colonic Material Stability Assay; conditions: colonic material slurry, anaerobic, 1 or 10 μM
[3] = Assay 1. Stability in Simulated Gastric Fluid (SGF)
Summary of the method: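 Degradation rate from LC/MS of acetonitrile-quenched aliquots (T0, then regular intervals). Fresh SGF (pH 1.6 NaCl, FaSSIF powder, pepsin 0.1 mg/mL) held compound at 1 μM final, 37° C; 1 mM DMSO stock.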

[4] = SGF pH 1.6 with pepsin, 1 μM, 37° C.

## CCC(=O)O[C@H]1[C@@H](OC(=O)CCc2c[nH]c3ccccc23)OC[C@@H](OC(=O)CC)[C@H]1OC(=O)CC [Compound 94, (2R,3R,4R,5R)-3,4,5-tris(propanoyloxy)oxan-2-yl 3-(1H-indol-3-yl)propanoate]
[1]
  Assay 2 (SIF) (% @ Remaining 4 hours): A (<25% of the tested compound remaining)
[2]
  Assay 3 (% Remaining at 24 h): A (<25% of the tested compound remaining)
[3]; [4]
  Assay 1 (SGF) (% Remaining @ 1 hour): C (>75% of the tested compound remaining)

## CCC(=O)O[C@@H]1OC[C@@H](OC(=O)CC)[C@@H](OC(=O)CC)[C@H]1OC(=O)CC [Compound 104, (2S,3R,4R,5R)-3,4,5-tris(propanoyloxy)oxan-2-yl propanoate]
[1]
  Assay 2 (SIF) (% @ Remaining 4 hours): A (<25% of the tested compound remaining)
[2]
  Assay 3 (% Remaining at 24 h): A (<25% of the tested compound remaining)
[3]; [4]
  Assay 1 (SGF) (% Remaining @ 1 hour): C (>75% of the tested compound remaining)

## CCC(=O)O[C@H]1[C@H](OC(=O)/C=C/c2c[nH]c3ccccc23)OC[C@@H](OC(=O)CC)[C@H]1OC(=O)CC [Compound 92, (2S,3R,4R,5R)-3,4,5-tris(propanoyloxy)oxan-2-yl (2E)-3-(1H-indol-3-yl)prop-2-enoate]
[1]
  Assay 2 (SIF) (% @ Remaining 4 hours): A (<25% of the tested compound remaining)
[2]
  Assay 3 (% Remaining at 24 h): A (<25% of the tested compound remaining)
[3]; [4]
  Assay 1 (SGF) (% Remaining @ 1 hour): C (>75% of the tested compound remaining)

## CCC(=O)Oc1cc(OC(=O)CC)c2c(=O)c(O)c(-c3ccc(OC(=O)CC)c(OC(=O)CC)c3)oc2c1 [Compound 165, 2-[3,4-bis(propanoyloxy)phenyl]-3-hydroxy-4-oxo-7-(propanoyloxy)-4H-chromen-5-yl propanoate]
[1]
  Assay 2 (SIF) (% @ Remaining 4 hours): A (<25% of the tested compound remaining)
[2]
  Assay 3 (% Remaining at 24 h): A (<25% of the tested compound remaining)
[3]; [4]
  Assay 1 (SGF) (% Remaining @ 1 hour): B (25-75% of the tested compound remaining)

## CCC(=O)O[C@@H]1[C@H](OC(=O)CC)COC(O)[C@@H]1OC(=O)CC (stereo partly drawn) [Compound 105, (3R,4R,5R)-2-hydroxy-4,5-bis(propanoyloxy)oxan-3-yl propanoate]
[1]
  Assay 2 (SIF) (% @ Remaining 4 hours): B (25-75% of the tested compound remaining)
[2]
  Assay 3 (% Remaining at 24 h): B (25-75% of the tested compound remaining)
[3]; [4]
  Assay 1 (SGF) (% Remaining @ 1 hour): C (>75% of the tested compound remaining)

## C[C@@H]1OC(O)[C@@H](OC(=O)CCc2c[nH]c3ccccc23)[C@H](OC(=O)CCc2c[nH]c3ccccc23)[C@@H]1OC(=O)CCc1c[nH]c2ccccc12 (stereo partly drawn) [Compound 62, (2S,3R,4R,5S)-6-hydroxy-4,5-bis({[3-(1H-indol-3-yl)propanoyl]oxy})-2-methyloxan-3-yl 3-(1H-indol-3-yl)propanoate]
[1]
  Assay 2 (SIF) (% @ Remaining 4 hours): A (<25% of the tested compound remaining)
[2]
  Assay 3 (% Remaining at 24 h): C (>75% of the tested compound remaining)
[3]; [4]
  Assay 1 (SGF) (% Remaining @ 1 hour): C (>75% of the tested compound remaining)

## CCC(=O)O[C@H]1O[C@H](C(=O)O)[C@@H](OC(=O)CC)[C@H](OC(=O)CC)[C@H]1OC(=O)CC [Compound 46, (2S,3S,4S,5R,6R)-3,4,5,6-tetrakis(propanoyloxy)oxane-2-carboxylic acid]
[1]
  Assay 2 (SIF) (% @ Remaining 4 hours): A (<25% of the tested compound remaining)
[2]
  Assay 3 (% Remaining at 24 h): A (<25% of the tested compound remaining)
[3]; [4]
  Assay 1 (SGF) (% Remaining @ 1 hour): C (>75% of the tested compound remaining)

## CCCC(=O)Oc1cc(OC(=O)CCC)c2c(c1)O[C@H](c1ccc(OC(=O)CCC)c(OC(=O)CCC)c1)[C@H](OC(=O)CCC)C2 [Compound 193, (2R,3R)-2-[3,4-bis(butanoyloxy)phenyl]-5,7-bis(butanoyloxy)-3,4-dihydro-2H-1-benzopyran-3-yl butanoate]
[1]
  Assay 2 (SIF) (% @ Remaining 4 hours): A (<25% of the tested compound remaining)
[2]
  Assay 3 (% Remaining at 24 h): A (<25% of the tested compound remaining)
[3]; [4]
  Assay 1 (SGF) (% Remaining @ 1 hour): C (>75% of the tested compound remaining)

## CCCC(=O)Oc1ccc(-c2cc(=O)c3c(OC(=O)CCC)cc(OC(=O)CCC)cc3o2)cc1 [Compound 170, 5-(butanoyloxy)-2-[4-(butanoyloxy)phenyl]-4-oxo-4H-chromen-7-yl butanoate]
[1]
  Assay 2 (SIF) (% @ Remaining 4 hours): A (<25% of the tested compound remaining)
[2]
  Assay 3 (% Remaining at 24 h): A (<25% of the tested compound remaining)
[3]; [4]
  Assay 1 (SGF) (% Remaining @ 1 hour): B (25-75% of the tested compound remaining)

## O=C(CCc1c[nH]c2ccccc12)O[C@@H]1O[C@H](C(=O)O)[C@@H](OC(=O)CCc2c[nH]c3ccccc23)[C@H](OC(=O)CCc2c[nH]c3ccccc23)[C@H]1OC(=O)CCc1c[nH]c2ccccc12 [Compound 49, (2S,3S,4S,5R,6S)-3,4,5,6-tetrakis({[3-(1H-indol-3-yl)propanoyl]oxy})oxane-2-carboxylic acid]
[1]
  Assay 2 (SIF) (% @ Remaining 4 hours): A (<25% of the tested compound remaining)
[2]
  Assay 3 (% Remaining at 24 h): A (<25% of the tested compound remaining)
[3]; Run 1, SGF
  Assay 1 (SGF) (% Remaining @ 1 hour): B (25-75% of the tested compound remaining)
[3]; Run 2, SGF
  Assay 1 (SGF) (% Remaining @ 1 hour): C (>75% of the tested compound remaining)

## CCC(=O)O[C@@H]1[C@@H](OC(=O)CC)[C@@H](OC(=O)Cc2c[nH]c3ccccc23)OC[C@H]1OC(=O)CC [Compound 117, (2R,3R,4S,5R)-2-{[2-(1H-indol-3-yl)acetyl]oxy}-4,5-bis(propanoyloxy)oxan-3-yl propanoate]
[1]
  Assay 2 (SIF) (% @ Remaining 4 hours): A (<25% of the tested compound remaining)
[2]
  Assay 3 (% Remaining at 24 h): A (<25% of the tested compound remaining)
[3]; [4]
  Assay 1 (SGF) (% Remaining @ 1 hour): C (>75% of the tested compound remaining)

## O=C(CCc1c[nH]c2ccccc12)O[C@H]1OC[C@H](OC(=O)CCc2c[nH]c3ccccc23)[C@H](OC(=O)CCc2c[nH]c3ccccc23)[C@H]1OC(=O)CCc1c[nH]c2ccccc12 [Compound 149, (2R,3R,4S,5S)-3,4,5-tris({[3-(1H-indol-3-yl)propanoyl]oxy})oxan-2-yl 3-(1H-indol-3-yl)propanoate]
[1]
  Assay 2 (SIF) (% @ Remaining 4 hours): A (<25% of the tested compound remaining)
[2]
  Assay 3 (% Remaining at 24 h): A (<25% of the tested compound remaining)
[3]; [4]
  Assay 1 (SGF) (% Remaining @ 1 hour): B (25-75% of the tested compound remaining)

## CCCC(=O)O[C@@H]1[C@@H](OC(=O)CCC)[C@H](C)O[C@@H](OC(=O)CCc2c[nH]c3ccccc23)[C@@H]1OC(=O)CCC [Compound 83, (2S,3R,4R,5S,6S)-4,5-bis(butanoyloxy)-2-{[3-(1H-indol-3-yl)propanoyl]oxy}-6-methyloxan-3-yl butanoate]
[1]
  Assay 2 (SIF) (% @ Remaining 4 hours): A (<25% of the tested compound remaining)
[2]
  Assay 3 (% Remaining at 24 h): A (<25% of the tested compound remaining)
[3]; [4]
  Assay 1 (SGF) (% Remaining @ 1 hour): C (>75% of the tested compound remaining)

## CCCC(=O)O[C@@H]1[C@@H](OC(=O)CCC)[C@H](Oc2ccc(N)cc2C(=O)O)OC[C@H]1OC(=O)CCC [Compound 19, 5-amino-2-[(2S,3R,4S,5R)-3,4,5-tri(butanoyloxy)tetrahydropyran-2-yl]oxy-benzoic acid]
[1]
  Assay 2 (SIF) (% @ Remaining 4 hours): B (25-75% of the tested compound remaining)
[2]
  Assay 3 (% Remaining at 24 h): B (25-75% of the tested compound remaining)
[3]; [4]
  Assay 1 (SGF) (% Remaining @ 1 hour): C (>75% of the tested compound remaining)

## CCC(=O)OC[C@H]1O[C@H](OC)[C@H](OC(=O)CC)[C@@H](OC(=O)CC)[C@H]1OC(=O)CC [Compound 57, [(2R,3S,4S,5R,6S)-6-methoxy-3,4,5-tris(propanoyloxy)oxan-2-yl]methyl propanoate]
[1]
  Assay 2 (SIF) (% @ Remaining 4 hours): A (<25% of the tested compound remaining)
[2]
  Assay 3 (% Remaining at 24 h): A (<25% of the tested compound remaining)
[3]; [4]
  Assay 1 (SGF) (% Remaining @ 1 hour): C (>75% of the tested compound remaining)

## CCC(=O)Oc1ccc(-c2cc(=O)c3c(OC(=O)CC)cc(OC(=O)CC)cc3o2)cc1 [Compound 172, 4-oxo-7-(propanoyloxy)-2-[4-(propanoyloxy)phenyl]-4H-chromen-5-yl propanoate]
[1]
  Assay 2 (SIF) (% @ Remaining 4 hours): A (<25% of the tested compound remaining)
[2]
  Assay 3 (% Remaining at 24 h): B (25-75% of the tested compound remaining)
[3]; [4]
  Assay 1 (SGF) (% Remaining @ 1 hour): C (>75% of the tested compound remaining)

## CC(=O)O[C@H]1OC[C@H](OC(C)=O)[C@H](OC(C)=O)[C@H]1OC(C)=O [Compound 219, (2R,3R,4S,5S)-tetrahydro-2H-pyran-2,3,4,5-tetrayl tetraacetate]
[1]
  Assay 2 (SIF) (% @ Remaining 4 hours): A (<25% of the tested compound remaining)
[2]
  Assay 3 (% Remaining at 24 h): A (<25% of the tested compound remaining)
[3]; [4]
  Assay 1 (SGF) (% Remaining @ 1 hour): C (>75% of the tested compound remaining)

## CCC(=O)O[C@H]1[C@H](OC(=O)CCc2c[nH]c3ccccc23)OC[C@@H](OC(=O)CC)[C@H]1OC(=O)CC [Compound 98, (2S,3R,4R,5R)-3,4,5-tris(propanoyloxy)oxan-2-yl 3-(1H-indol-3-yl)propanoate]
[1]
  Assay 2 (SIF) (% @ Remaining 4 hours): A (<25% of the tested compound remaining)
[2]
  Assay 3 (% Remaining at 24 h): A (<25% of the tested compound remaining)
[3]; [4]
  Assay 1 (SGF) (% Remaining @ 1 hour): B (25-75% of the tested compound remaining)

## CCC(=O)Oc1cc(C(=O)O)cc(OC(=O)CC)c1OC(=O)CC [Compound 201, 3,4,5-tris(propanoyloxy)benzoic acid]
[1]
  Assay 2 (SIF) (% @ Remaining 4 hours): A (<25% of the tested compound remaining)
[2]
  Assay 3 (% Remaining at 24 h): A (<25% of the tested compound remaining)
[3]; [4]
  Assay 1 (SGF) (% Remaining @ 1 hour): C (>75% of the tested compound remaining)

## CCC(=O)O[C@@H]1O[C@@H](C)[C@H](OC(=O)CC)[C@@H](OC(=O)CC)[C@H]1OC(=O)CC [Compound 78, (2S,3R,4R,5S,6S)-6-methyl-3,4,5-tris(propanoyloxy)oxan-2-yl propanoate]
[1]
  Assay 2 (SIF) (% @ Remaining 4 hours): A (<25% of the tested compound remaining)
[2]
  Assay 3 (% Remaining at 24 h): A (<25% of the tested compound remaining)
[3]; [4]
  Assay 1 (SGF) (% Remaining @ 1 hour): B (25-75% of the tested compound remaining)
